A short description of the data set: Dissolving of olsalazine in dissolution media. Type of data set: physicochemical. On the procedure: Formulation 4 tablets were also made using pharmaceutical grade olsalazine in a micronized form in order to test the effects of drug particle size on tablet manufacturing and the ensuing release profiles. In vitro release profiles were evaluated for Formulation 4 tablets made as described in Example 1 and for tablets made using the same formula and process except with micronized olsalazine.

Turning to olsalazine, the dissolving in media result reads like this: (pH 4.5 acetate buffer) “did not completely dissolve”; (pH 7.5 phosphate buffer) “dissolves easily”.
